Laboratory results as given in patent publication US20240398899A1 (priority 2021, published 2024).

Assays:
Test in all cases: Alzheimer's biomarker multiplex analysis, scopolamine-damaged SH-SY5Y
Assay type in all cases: cell-based, human
Settings in all cases: Scopolamine (4 mM)
MPO = test system: MPO
Experimental: (§1) After overnight incubation as in the previous examples, cells were treated with recombinant lectin protein having SEQ ID NO: 1 at different concentrations ranging from 0.001 μg/ml-1 μg/ml for 24 h for Parkinson disease and 0.01 μg/ml-25 μg/ml for 24 h for Alzheimer's disease. • Parkinson Disease: After 24 h of pre-treatment with recombinant lectin protein having SEQ ID NO: 1, cells were exposed (MPP+) for another 24 h. Cells treated with MPP+Iodide were included as Control. […] The cells treated with Galantamine were included as positive Control.
(§2) The levels of markers were determined by multiplex analysis as: Cell culture supernatants were diluted (1:2) with Calibrator Diluent. 50 μl of standard or sample was added per well. 50 μl of the microparticle cocktail was added to each well of the microplate and covered with a foil plate sealer. The plate was incubated for 2 hours at room temperature on a horizontal orbital microplate shaker. The plate was washed using a magnetic device designed to accommodate a microplate. Washing was done by applying the magnet to the bottom of the microplate, allowing 1 minute before removing the liquid, filling each well with wash buffer (100 μl) and allowing 1 minute before removing the liquid again. 50 μl of diluted Biotin-Antibody Cocktail was added to each well. Covered the plate with a foil plate sealer and incubated for 1 hour at room temperature on the shaker. Repeated the wash step. 50 μl of diluted Streptavidin-PE was added to each well. The plate was securely covered with a foil plate sealer and incubated for 30 minutes at room temperature on the shaker. Repeated the wash step. The microparticles were resuspended by adding 100 μl of Wash Buffer to each well. The plate was incubated for 2 minutes on the shaker and read within 90 minutes using Magpix® multiplex machine. Levels of biomarkers for Parkinson's and Alzheimer's disease were estimated using Magpix® multiplex machine.
(§3) For Alzheimer's disease the percent modulation in each sample was determined as follows: […]

RAGE = test system: RAGE
Experimental: as §1, §2, §3

b-NGF = test system: b-NGF
Experimental: as §1, §2, §3

COc1ccc2c3c1O[C@H]1C[C@@H](O)C=C[C@@]31CCN(C)C2 [Galantamine, reference compound]
% Change of Biomarkers markers (wrt Control) MPO (MPO; 1 μM): −64% | % Change of Biomarkers markers (wrt Control) MPO (MPO; 10 μM): −31.2% | % Change of Biomarkers markers (wrt Control) MPO (MPO; 100 μM): −45.9% | % Change of Biomarkers markers (wrt Control) RAGE (RAGE; 1 μM): 0% | % Change of Biomarkers markers (wrt Control) RAGE (RAGE; 10 μM): 0% | % Change of Biomarkers markers (wrt Control) RAGE (RAGE; 100 μM): −38.7% | % Change of Biomarkers markers (wrt Control) b-NGF (b-NGF; 1 μM): 9.1% | % Change of Biomarkers markers (wrt Control) b-NGF (b-NGF; 10 μM): 0% | % Change of Biomarkers markers (wrt Control) b-NGF (b-NGF; 100 μM): −9%
